The values below come from US7682618B2 (priority 2001, dated 2010).

Data set [1] concerns EBOV infection of Vero E6 cells. The format is cell-based, Ebola virus.
The subject of data set [2] is Vero E6 cells.
Data set [3] relates to Ebola GP in lipid rafts of 293T cells. It counts as cell-based, human.

Turning to `CCCCC[C@@H](O)[C@H]1C(=O)O[C@H](C)[C@@H](O)/C=C/C=C/C=C/C=C/C=C(\C)[C@@H](O)C[C@H](O)C[C@H](O)C[C@H](O)C[C@H](O)C[C@H](O)C[C@@H]1O` [filipin], in data set [1], the “EBOV infection, viral titer 48 hour post infection” value was “significant inhibition of EBOV infection” and the “virus production after recovery from drug treatment” value is “could produce large amounts of virus”. Besides, in data set [2], the “general cytotoxic effect, trypan blue exclusion” value is reported as “viable”.

Turning to methyl-β-cyclodextrin, the “association of Ebola GP with rafts (detergent insoluble fraction)” value in data set [3] is recorded as “almost complete removal of Ebola GP from rafts”.

On to nystatin, for which the “general cytotoxic effect, trypan blue exclusion” value in data set [2] was “viable”.
